The assay relates to P388 leukemia ip, CD2F1 mice, survival T/C. The experiment in a line: NCI In Vivo Anticancer Drug Screen. Data for tumor model P388 Leukemia (intraperitoneal) in CD2F1 (CDF1) mice. As to conditions: endpoint: median survival time, higher = longer survival. In outline: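 Mice carrying the transplanted tumor received test compound or vehicle. Survival was recorded in each group, and the value is the treated-group measurement divided by that of the vehicle-treated control group.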

Where [1] appears, read: dose: 50.0 mg/kg/injection, schedule: Q01DX005 (ip), vehicle: saline with Tween-80.
Where [2] appears, read: dose: 100.0 mg/kg/injection, schedule: Q01DX005 (ip), vehicle: saline with Tween-80.
Setting [3] is: dose: 200.0 mg/kg/injection, schedule: Q01DX005 (ip), vehicle: saline with Tween-80.
The mark [4] stands for this setting: dose: 50.0 mg/kg/injection, schedule: Q01DX005 (ip), vehicle: Klucel (hydroxypropylcellulose) (HPC).
Where [5] appears, read: dose: 100.0 mg/kg/injection, schedule: Q01DX005 (ip), vehicle: Klucel (hydroxypropylcellulose) (HPC).
Setting [6] is: dose: 200.0 mg/kg/injection, schedule: Q01DX005 (ip), vehicle: Klucel (hydroxypropylcellulose) (HPC).
Setting [7] is: dose: 100.0 mg/kg/injection, schedule: Q04DX003 (ip), vehicle: saline with Tween-80.
Where [8] appears, read: dose: 60.0 mg/kg/injection, schedule: Q01DX005 (ip), vehicle: saline with Tween-80.
The mark [9] stands for this setting: dose: 120.0 mg/kg/injection, schedule: Q01DX005 (ip), vehicle: saline with Tween-80.
Setting [10] is: dose: 100.0 mg/kg/injection, schedule: Q04DX002 (ip), vehicle: Klucel (hydroxypropylcellulose) (HPC).
[11] abbreviates: dose: 200.0 mg/kg/injection, schedule: Q04DX002 (ip), vehicle: Klucel (hydroxypropylcellulose) (HPC).
Setting [12] is: dose: 400.0 mg/kg/injection, schedule: Q04DX002 (ip), vehicle: Klucel (hydroxypropylcellulose) (HPC).
Where [13] appears, read: dose: 240.0 mg/kg/injection, schedule: Q01DX005 (ip), vehicle: saline with Tween-80.

“And” between values parts separate entries of the source, which are not always exact repeats. Equal values may be shown once. Toxic doses and inconclusive results are not listed. Peptide text beside a SMILES is read from it. * marks the point of attachment. Cbz = O=C(OCc1ccccc1)*

T/C data for 24 compounds are collected here from PubChem BioAssay AID330 (DTP/NCI, 2004).

On to `CN(C)C[N+](C)(C)Cc1ccc(C[N+](C)(C)C[N+](C)(C)Cc2ccc(CCl)cc2)cc1`, for which the T/C by setting is: (dose: 0.19 mg/kg/injection, schedule: Q04DX003 (ip), vehicle: saline) 100 % of control; (dose: 0.39 mg/kg/injection, schedule: Q04DX003 (ip), vehicle: saline) 94 % of control; (dose: 0.78 mg/kg/injection, schedule: Q04DX003 (ip), vehicle: saline) 103 % of control and 88 % of control; (dose: 1.56 mg/kg/injection, schedule: Q04DX003 (ip), vehicle: saline) 88 % of control; (dose: 3.12 mg/kg/injection, schedule: Q04DX003 (ip), vehicle: saline) 99 % of control.
As for `Cc1cc(C)nc(NC(=O)Nc2cc(Cl)ccc2C)c1`, the T/C was 88 % of control (dose: 60.0 mg/kg/injection, schedule: Q01DX005 (ip), vehicle: Klucel (hydroxypropylcellulose) (HPC)); 86 % of control (dose: 120.0 mg/kg/injection, schedule: Q01DX005 (ip), vehicle: Klucel (hydroxypropylcellulose) (HPC)); 89 % of control (dose: 240.0 mg/kg/injection, schedule: Q01DX005 (ip), vehicle: Klucel (hydroxypropylcellulose) (HPC)).
For the compound `[Cu+2].[O-]c1ccc(Br)c2cccnc12.[O-]c1ccc(Br)c2cccnc12`, the T/C reads like this: (dose: 12.5 mg/kg/injection, schedule: Q01DX009 (ip), vehicle: saline with Tween-80) 104 % of control; (dose: 25.0 mg/kg/injection, schedule: Q01DX009 (ip), vehicle: saline with Tween-80) 100 % of control; (dose: 33.0 mg/kg/injection, schedule: Q04DX003 (ip), vehicle: saline with Tween-80) 90 % of control; (dose: 50.0 mg/kg/injection, schedule: Q01DX009 (ip), vehicle: saline with Tween-80) 104 % of control.
With `CC(C)(C)OC(=O)NCCCC(NC(=O)OCc1ccccc1)C(=O)O` (stereo not drawn), the T/C under setting [1] is 103 % of control, the T/C under setting [2] was 99 % of control and the T/C under setting [3] is 95 % of control.
For the compound `COc1ccc(-c2cc(O)c3c(c2N)C(=O)c2c(O)ccc(N)c2C3=O)cc1`, the T/C was 86 % of control under setting [4], 90 % of control under setting [5] and 90 % of control under setting [6].
For the compound `CC(C)C1CCC(C)(Cl)C2CCC(C)(Cl)CC12` (stereo not drawn), the T/C (dose: 100.0 mg/kg/injection, schedule: Q04DX003 (ip), vehicle: other) is 90 % of control; the T/C (dose: 200.0 mg/kg/injection, schedule: Q04DX003 (ip), vehicle: other) is 100 % of control; the T/C (dose: 400.0 mg/kg/injection, schedule: Q04DX003 (ip), vehicle: other) is 100 % of control.
As to `C/C(=C\Cc1cc(O)cc(C)c1O)CC(=O)CC1(C)CCCC1(C)C(=O)/C=C/C(C)(C)O` (stereo not drawn), the T/C is 110 % of control (dose: 1.5 mg/kg/injection, schedule: Q01DX009 (ip), vehicle: saline with Tween-80); 101 % of control (dose: 3.0 mg/kg/injection, schedule: Q01DX009 (ip), vehicle: saline with Tween-80); 104 % of control (dose: 6.0 mg/kg/injection, schedule: Q01DX009 (ip), vehicle: saline with Tween-80); 103 % of control (dose: 12.0 mg/kg/injection, schedule: Q01DX009 (ip), vehicle: saline with Tween-80).
In the case of `Cc1ccc(S(=O)(=O)N2CCCC2C(=O)NNC(N)=S)cc1` (stereo not drawn), the T/C is 99 % of control under setting [4], 89 % of control under setting [5] and 91 % of control under setting [6].
As to `C/C(=N/NC(=O)O[C@@H]1C[C@H](C)CC[C@H]1C(C)C)c1cc[c]([Sn]([CH3])([Cl])[c]2ccccc2)cc1` (stereo partly drawn), the T/C reads like this: (dose: 0.93 mg/kg/injection, schedule: Q01DX005 (ip), vehicle: Klucel (hydroxypropylcellulose) (HPC)) 108 % of control; (dose: 1.87 mg/kg/injection, schedule: Q01DX005 (ip), vehicle: Klucel (hydroxypropylcellulose) (HPC)) 100 % of control; (dose: 3.75 mg/kg/injection, schedule: Q01DX005 (ip), vehicle: Klucel (hydroxypropylcellulose) (HPC)) 100 % of control and 109 % of control; (dose: 7.5 mg/kg/injection, schedule: Q01DX005 (ip), vehicle: Klucel (hydroxypropylcellulose) (HPC)) 107 % of control.
For `COc1ccc(OC)c(C2N(Cc3ccccc3N(C)C)CCCN2Cc2ccccc2N(C)C)c1`, the T/C by setting is: (dose: 50.0 mg/kg/injection, schedule: Q04DX003 (ip), vehicle: saline with Tween-80) 91 % of control; under setting [7], 87 % of control.
In the case of `CCO/C=C1N=C(/C=C/c2ccc(Cl)cc2)OC/1=O`, the T/C under setting [8] was 91 % of control and the T/C under setting [9] is 90 % of control.
Turning to `CCN(CCO)CCNc1ccc(C)c2sc3cc(Cl)ccc3c(=O)c12`, the T/C is 104 % of control (dose: 12.5 mg/kg/injection, schedule: Q01DX005 (ip), vehicle: Klucel (hydroxypropylcellulose) (HPC)); 104 % of control (dose: 25.0 mg/kg/injection, schedule: Q01DX005 (ip), vehicle: Klucel (hydroxypropylcellulose) (HPC)); 101 % of control and 102 % of control under setting [4]; 111 % of control under setting [5].
Turning to `Nc1nc(=O)n(C2OC(CO)C(O)C2O)cc1F` (stereo not drawn), the T/C was 190 % of control (dose: 9.0 mg/kg/injection, schedule: Q01DX009 (ip), vehicle: saline sonified); 154 % of control (dose: 9.0 mg/kg/injection, schedule: Q04DX003 (ip), vehicle: saline sonified); 200 % of control (dose: 18.0 mg/kg/injection, schedule: Q01DX009 (ip), vehicle: saline sonified); 162 % of control (dose: 18.0 mg/kg/injection, schedule: Q04DX003 (ip), vehicle: saline sonified); 181 % of control (dose: 24.0 mg/kg/injection, schedule: Q04DX003 (ip), vehicle: saline with Tween-80); 236 % of control (dose: 36.0 mg/kg/injection, schedule: Q01DX009 (ip), vehicle: saline sonified). In addition, the T/C was 162 % of control (dose: 36.0 mg/kg/injection, schedule: Q04DX003 (ip), vehicle: saline sonified); 172 % of control (dose: 36.0 mg/kg/injection, schedule: Q04DX003 (ip), vehicle: saline with Tween-80); 186 % of control (dose: 54.0 mg/kg/injection, schedule: Q04DX003 (ip), vehicle: saline with Tween-80).
On to `O=C(O)C(=O)O.[Mn]`, for which, under setting [7], the T/C is 86 % of control.
Regarding `O=C(/C(=C\c1ccc(F)cc1)S(=O)(=O)c1ccc(F)cc1)c1ccccc1`, the T/C is, setting by setting: under setting [1], 110 % of control; under setting [2], 102 % of control; under setting [3], 103 % of control.
With `CCCCCCCC(=O)c1c(O)c2ccccc2oc1=O`, the T/C was 102 % of control (dose: 15.0 mg/kg/injection, schedule: Q01DX005 (ip), vehicle: saline with Tween-80); 105 % of control (dose: 30.0 mg/kg/injection, schedule: Q01DX005 (ip), vehicle: saline with Tween-80); 103 % of control and 96 % of control under setting [8].
Turning to `COC(=O)CNC(=O)C(NC(=O)C1CCCN1C(=O)OCc1ccccc1)C(C)C` (stereo not drawn) (Cbz-Pro-Val-Gly-OMe; configuration not given here), the T/C under setting [1] was 105 % of control, the T/C under setting [2] was 100 % of control and the T/C under setting [3] was 100 % of control.
With `CCN(CC)c1c(C)c(-c2ccccc2)oc(=O)c1Cl`, the T/C runs as follows: under setting [1], 100 % of control; under setting [2], 100 % of control; under setting [3], 115 % of control.
`C[C@]12C=CC(=O)C=C1CC[C@@H]1[C@@H]2[C@@H](O)C[C@@]2(C)[C@H]1CC[C@]2(O)C(=O)COC(=O)CCC(=O)O`: the T/C (dose: 66.0 mg/kg/injection, schedule: Q01DX009 (ip), vehicle: saline with Tween-80) was 109 % of control; the T/C (dose: 100.0 mg/kg/injection, schedule: Q01DX009 (ip), vehicle: saline with Tween-80) is 109 % of control; the T/C (dose: 150.0 mg/kg/injection, schedule: Q01DX009 (ip), vehicle: saline with Tween-80) was 109 % of control.
As for `CCNC(=O)/N=c1/sc([N+](=O)[O-])cn1CC(=O)N1CCCCC1`, the T/C was 100 % of control under setting [10], 99 % of control under setting [11] and 98 % of control under setting [12].
On to `CCN(CC)CCNc1ccc(C)c2sc3cccc(O)c3c(=O)c12`, for which the T/C (dose: 100.0 mg/kg/injection, schedule: Q01DX009 (ip), vehicle: Klucel (hydroxypropylcellulose) (HPC)) is 181 % of control.
`CN(O)C(=O)CCCCCCCCC(=O)N(C)O`: the T/C reads like this: under setting [8], 103 % of control; under setting [9], 105 % of control; under setting [13], 114 % of control.
Consider `COC(=O)c1nnn(-c2ccc(Cl)cc2Cl)c1N`, for which the T/C under setting [8] was 103 % of control, the T/C under setting [9] was 103 % of control and the T/C under setting [13] is 122 % of control.
`CCS(=O)c1ccccc1` (stereo not drawn): the T/C under setting [10] was 100 % of control, the T/C under setting [11] is 100 % of control and the T/C under setting [12] was 102 % of control.
